Experimental data published in patent publication US9101638B2, “Boronic acid derivatives and therapeutic uses thereof” (Rempex Pharmaceuticals, Inc., priority 2013, dated 2015).

What was measured:
KP1005 (CTX-M-14) = assay: Potentiation of aztreonam, strain KP1005; format: cell-based
KPC-2 = KPC-2 (Klebsiella pneumoniae, UniProt Q9F663); assay: Inhibition of nitrocefin cleavage by purified KPC-2; format: biochemical; settings: nitrocefin reporter substrate, purified enzyme; read-out: Ki (KPC-2, NCF)
KPC-2, sequence (Q9F663 25-293, looked up, species assumed): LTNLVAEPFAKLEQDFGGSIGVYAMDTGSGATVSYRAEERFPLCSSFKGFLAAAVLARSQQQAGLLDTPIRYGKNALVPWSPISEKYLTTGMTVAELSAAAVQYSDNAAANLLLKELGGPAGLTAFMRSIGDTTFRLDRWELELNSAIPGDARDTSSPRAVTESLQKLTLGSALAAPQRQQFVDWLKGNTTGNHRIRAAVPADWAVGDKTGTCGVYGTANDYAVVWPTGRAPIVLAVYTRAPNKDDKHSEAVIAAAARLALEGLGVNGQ
Method: (§1) Purified enzymes were mixed with various concentrations of inhibitors in reaction buffer and incubated for 10 min at room temperature. Nitrocefin was added and substrate cleavage profiles were recorded at 490 nm every 10 sec for 10 min.

EC1010 (CMY-6) [1] = assay: Potentiation of aztreonam, strain EC1010; format: cell-based
CathepsinA = target: T1, CathepsinA (Homo sapiens, UniProt P10619); assay: Serine protease inhibition: cathepsin A; format: biochemical, mammalian; settings: Table 8B; read-out: IC50 CathepsinA
T1 construct: purchased R&D Systems 1049-SE
T1 sequence (P10619 29-480): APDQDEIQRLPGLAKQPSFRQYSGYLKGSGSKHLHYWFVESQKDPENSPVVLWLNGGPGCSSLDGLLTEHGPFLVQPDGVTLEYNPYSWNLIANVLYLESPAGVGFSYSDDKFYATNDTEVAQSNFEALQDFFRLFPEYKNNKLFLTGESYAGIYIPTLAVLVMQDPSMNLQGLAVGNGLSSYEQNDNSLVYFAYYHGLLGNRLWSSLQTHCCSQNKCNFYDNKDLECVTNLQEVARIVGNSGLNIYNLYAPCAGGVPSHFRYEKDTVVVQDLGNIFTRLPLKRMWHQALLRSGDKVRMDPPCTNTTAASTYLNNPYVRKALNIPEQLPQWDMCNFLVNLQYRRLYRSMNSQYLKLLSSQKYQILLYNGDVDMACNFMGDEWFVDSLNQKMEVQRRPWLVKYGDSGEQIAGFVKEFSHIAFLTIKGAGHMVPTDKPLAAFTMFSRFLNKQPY
Method: (§2) The effect of selected BLIs on the enzymatic activity of some common mammalian serine proteases was evaluated.
(§3) 50 μl of the diluted enzyme was mixed with 50 μl of inhibitor at various concentrations and 50 μl of corresponding buffer (Table 7). Reaction mixtures were incubated for 10 min at 37° C. Subsequently, 50 μl of corresponding substrate (Table 7) was added and absorbance or fluorescence was monitored for 30 min on SpectraMax M2 plate reader (Molecular Devices). 4-(2-Aminoethyl)benzenesulfonyl fluoride hydrochloride (AEBSF) and leupeptin were used as positive controls. Rates of reaction were calculated and presented relative to “no treatment” control.

Chymase = target: T2, Chymase (Homo sapiens, UniProt P23946); assay: Serine protease inhibition: chymase; format: biochemical, mammalian; settings: Table 8A, class symbols; read-out: IC50 Chymase
T2 construct: purchased Enzo Lifescience BML-SE281
T2 sequence (P23946 22-247): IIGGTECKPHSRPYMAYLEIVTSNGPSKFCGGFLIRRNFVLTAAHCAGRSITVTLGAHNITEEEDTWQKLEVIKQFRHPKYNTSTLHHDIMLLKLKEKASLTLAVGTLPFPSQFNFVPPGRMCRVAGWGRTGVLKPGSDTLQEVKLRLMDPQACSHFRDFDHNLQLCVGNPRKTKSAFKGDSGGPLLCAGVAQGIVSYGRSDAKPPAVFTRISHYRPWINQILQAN
Method: as §2, §3

SHV-12 = SHV-12 (Klebsiella pneumoniae, UniProt P0AD64, E235K/G234S/L31Q); assay: Inhibition of nitrocefin cleavage by purified SHV-12; format: biochemical; settings: nitrocefin reporter substrate, purified enzyme; read-out: Ki (SHV-12, NCF)
SHV-12, sequence (P0AD64 22-286 L31Q/G234S/E235K): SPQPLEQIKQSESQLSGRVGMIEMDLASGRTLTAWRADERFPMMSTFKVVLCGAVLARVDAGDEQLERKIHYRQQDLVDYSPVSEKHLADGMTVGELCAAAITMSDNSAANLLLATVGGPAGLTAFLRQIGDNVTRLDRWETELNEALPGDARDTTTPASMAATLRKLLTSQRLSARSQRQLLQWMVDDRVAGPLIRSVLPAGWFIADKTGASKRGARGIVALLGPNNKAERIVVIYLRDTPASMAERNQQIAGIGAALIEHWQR
Method: as §1

[2] = target: T3, Dipeptidyl peptidase 8 (DPP8) (Homo sapiens, UniProt Q6V1X1); assay: Serine protease inhibition: DPP8; format: biochemical, mammalian; settings: Table 8B; read-out: IC50 DPP8
T3 construct: purchased BPS Bioscience 80080
T3 sequence (Q6V1X1 whole entry): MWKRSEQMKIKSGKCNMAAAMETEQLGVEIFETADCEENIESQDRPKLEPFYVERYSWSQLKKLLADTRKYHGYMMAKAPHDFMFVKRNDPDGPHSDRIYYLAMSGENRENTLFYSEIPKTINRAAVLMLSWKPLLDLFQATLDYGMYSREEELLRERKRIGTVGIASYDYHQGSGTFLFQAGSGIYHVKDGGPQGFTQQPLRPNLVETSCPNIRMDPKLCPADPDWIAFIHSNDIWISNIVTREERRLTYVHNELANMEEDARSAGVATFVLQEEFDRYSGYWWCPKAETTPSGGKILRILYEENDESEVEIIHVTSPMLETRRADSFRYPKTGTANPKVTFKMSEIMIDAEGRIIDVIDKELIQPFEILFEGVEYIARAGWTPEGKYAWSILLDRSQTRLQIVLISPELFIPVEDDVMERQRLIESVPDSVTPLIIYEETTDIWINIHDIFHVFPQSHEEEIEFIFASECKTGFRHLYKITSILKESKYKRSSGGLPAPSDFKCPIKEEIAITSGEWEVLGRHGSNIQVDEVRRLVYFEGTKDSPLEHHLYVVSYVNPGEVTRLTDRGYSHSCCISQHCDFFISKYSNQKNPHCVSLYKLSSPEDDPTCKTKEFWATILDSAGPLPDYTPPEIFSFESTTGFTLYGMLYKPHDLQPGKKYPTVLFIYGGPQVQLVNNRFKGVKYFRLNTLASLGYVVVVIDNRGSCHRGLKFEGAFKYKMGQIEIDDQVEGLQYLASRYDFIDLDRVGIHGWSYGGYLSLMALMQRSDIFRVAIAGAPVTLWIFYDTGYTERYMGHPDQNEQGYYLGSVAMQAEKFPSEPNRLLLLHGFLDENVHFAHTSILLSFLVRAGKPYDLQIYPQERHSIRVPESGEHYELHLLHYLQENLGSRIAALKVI
Method: as §2, §3

Thrombin = target: T4, Thrombin (Homo sapiens, UniProt P00734); assay: Serine protease inhibition: thrombin; format: biochemical, mammalian; settings: Table 8A, class symbols; read-out: IC50 Thrombin
T4 construct: Thrombin; MPBio; 19491880; purchased MPBio 19491880
Method: as §2, §3

ec308 (SHV-5) [3] = assay: Potentiation of tigemonam, strain ec308; format: cell-based; settings: minimum BLI concentration inhibiting growth with 4 μg/mL tigemonam
EC1010 (CMY-6) [4] = format: cell-based
KP1009 (CTX-M-15) [5] = assay: Potentiation of tigemonam, strain KP1009; settings: minimum BLI concentration inhibiting growth with 4 μg/mL tigemonam
ec302 (TEM-10) [6] = assay: Potentiation of aztreonam, strain ec302; format: cell-based
Neutrophil elastase = target: T5, Neutrophil elastase (Homo sapiens, UniProt P08246); assay: Serine protease inhibition: neutrophil elastase; format: biochemical, mammalian; settings: Table 8B; read-out: IC50 Neutrophil elastase
T5 construct: purchased Calbiochem 324681
T5 sequence (P08246 30-267): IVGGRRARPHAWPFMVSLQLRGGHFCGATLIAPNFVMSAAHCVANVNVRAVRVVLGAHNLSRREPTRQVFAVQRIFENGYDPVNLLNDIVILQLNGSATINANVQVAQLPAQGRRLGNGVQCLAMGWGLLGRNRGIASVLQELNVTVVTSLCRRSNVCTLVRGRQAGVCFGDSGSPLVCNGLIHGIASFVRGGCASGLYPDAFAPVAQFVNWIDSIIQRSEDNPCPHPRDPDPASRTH
Method: as §2, §3

[7] = target: T6, Dipeptidyl peptidase 9 (DPP9) (Homo sapiens, UniProt Q86TI2); assay: Serine protease inhibition: DPP9; format: biochemical, mammalian; settings: Table 8B; read-out: IC50 DPP9
T6 construct: purchased BPS Bioscience 80090
T6 sequence (Q86TI2 whole entry): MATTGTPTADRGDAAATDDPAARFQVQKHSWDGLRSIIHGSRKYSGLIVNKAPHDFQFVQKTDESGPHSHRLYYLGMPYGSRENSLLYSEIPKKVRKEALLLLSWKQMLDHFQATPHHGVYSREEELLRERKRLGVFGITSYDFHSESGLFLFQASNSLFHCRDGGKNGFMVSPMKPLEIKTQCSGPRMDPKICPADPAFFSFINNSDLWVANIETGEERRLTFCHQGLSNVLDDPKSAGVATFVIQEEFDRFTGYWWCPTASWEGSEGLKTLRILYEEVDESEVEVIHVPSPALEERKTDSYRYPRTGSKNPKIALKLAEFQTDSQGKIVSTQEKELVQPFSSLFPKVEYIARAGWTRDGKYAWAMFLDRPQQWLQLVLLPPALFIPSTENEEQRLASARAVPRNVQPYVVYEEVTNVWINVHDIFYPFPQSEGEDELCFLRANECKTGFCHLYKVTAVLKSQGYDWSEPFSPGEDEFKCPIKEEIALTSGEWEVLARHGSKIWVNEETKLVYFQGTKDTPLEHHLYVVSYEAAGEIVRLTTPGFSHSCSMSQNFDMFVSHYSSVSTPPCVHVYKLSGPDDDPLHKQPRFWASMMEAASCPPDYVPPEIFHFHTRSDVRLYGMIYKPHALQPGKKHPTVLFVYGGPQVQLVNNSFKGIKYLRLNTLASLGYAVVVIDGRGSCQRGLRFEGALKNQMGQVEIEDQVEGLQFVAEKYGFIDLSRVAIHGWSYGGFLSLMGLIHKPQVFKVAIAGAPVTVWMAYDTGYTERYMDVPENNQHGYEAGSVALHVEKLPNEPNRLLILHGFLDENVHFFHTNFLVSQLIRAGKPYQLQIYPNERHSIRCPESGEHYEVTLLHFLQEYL
Method: as §2, §3

CathepsinG = target: T7, CathepsinG (Homo sapiens, UniProt P08311); assay: Serine protease inhibition: cathepsin G; format: biochemical, mammalian; settings: Table 8B
T7 construct: purchased EMD Millipore 219373
T7 sequence (P08311 21-244): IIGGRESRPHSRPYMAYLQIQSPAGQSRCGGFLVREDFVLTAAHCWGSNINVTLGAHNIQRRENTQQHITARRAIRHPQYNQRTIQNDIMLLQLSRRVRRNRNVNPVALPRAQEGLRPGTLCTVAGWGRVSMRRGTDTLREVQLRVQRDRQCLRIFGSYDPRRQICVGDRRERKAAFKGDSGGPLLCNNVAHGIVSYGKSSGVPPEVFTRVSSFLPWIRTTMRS
Method: as §2, §3

ec302 (TEM-10) [8] = assay: Potentiation of tigemonam, strain ec302; format: cell-based
KP1004 (K-2) = assay: Potentiation of aztreonam, strain KP1004; format: cell-based; settings: minimum BLI concentration inhibiting growth with 4 μg/mL aztreonam
Chymotrypsin = target: T8, Chymotrypsin (Bos taurus, UniProt P00766); assay: Serine protease inhibition: chymotrypsin; format: biochemical, mammalian; settings: Table 8A, class symbols; read-out: IC50 Chymotrypsin
T8 construct: purchased Calbiochem 230832
Method: as §2, §3

CTX-M-14 = CTX-M-14 (Escherichia coli, UniProt Q9L5C7); assay: Inhibition of nitrocefin cleavage by purified CTX-M-14; format: biochemical; settings: nitrocefin reporter substrate, purified enzyme; read-out: Ki (CTX-M-14, NCF)
CTX-M-14, sequence (Q9L5C7 entry or part of it): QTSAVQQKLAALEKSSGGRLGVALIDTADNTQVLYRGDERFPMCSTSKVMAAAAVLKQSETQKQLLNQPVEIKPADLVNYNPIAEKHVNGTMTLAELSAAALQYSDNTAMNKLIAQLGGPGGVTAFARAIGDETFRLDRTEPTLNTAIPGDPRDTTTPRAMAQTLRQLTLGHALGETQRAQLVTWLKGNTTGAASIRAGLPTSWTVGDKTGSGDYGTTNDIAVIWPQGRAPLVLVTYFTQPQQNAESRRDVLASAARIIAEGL
Method: as §1

ECL1002 = assay: Potentiation of aztreonam, strain ECL1002; format: cell-based; settings: minimum BLI concentration inhibiting growth with 4 μg/mL aztreonam
ec308 (SHV-5) [9] = assay: Potentiation of aztreonam, strain ec308; format: cell-based; settings: minimum BLI concentration inhibiting growth with 4 μg/mL aztreonam
KP1009 (CTX-M-15) [10] = assay: Potentiation of aztreonam, strain KP1009; format: cell-based
P99 = P99 (Enterobacter cloacae, UniProt P05364); assay: Inhibition of nitrocefin cleavage by purified P99; format: biochemical; settings: nitrocefin reporter substrate, purified enzyme; read-out: Ki (P99, NCF)
P99, sequence (P05364 21-381): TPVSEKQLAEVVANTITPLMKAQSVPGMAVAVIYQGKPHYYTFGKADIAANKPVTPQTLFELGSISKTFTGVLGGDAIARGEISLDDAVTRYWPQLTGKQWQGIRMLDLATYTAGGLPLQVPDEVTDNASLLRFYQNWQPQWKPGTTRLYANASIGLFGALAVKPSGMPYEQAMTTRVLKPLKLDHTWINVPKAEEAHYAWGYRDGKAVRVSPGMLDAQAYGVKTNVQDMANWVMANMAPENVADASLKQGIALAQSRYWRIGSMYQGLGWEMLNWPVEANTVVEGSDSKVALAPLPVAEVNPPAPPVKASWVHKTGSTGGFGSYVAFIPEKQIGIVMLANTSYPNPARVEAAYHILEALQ
Method: as §1

OXA-48 = OXA-48 (Klebsiella pneumoniae, UniProt Q6XEC0); assay: Inhibition of nitrocefin cleavage by purified OXA-48; format: biochemical; settings: nitrocefin reporter substrate, purified enzyme; read-out: Ki (OXA-48, NCF)
OXA-48, sequence (Q6XEC0 23-265 limits assumed): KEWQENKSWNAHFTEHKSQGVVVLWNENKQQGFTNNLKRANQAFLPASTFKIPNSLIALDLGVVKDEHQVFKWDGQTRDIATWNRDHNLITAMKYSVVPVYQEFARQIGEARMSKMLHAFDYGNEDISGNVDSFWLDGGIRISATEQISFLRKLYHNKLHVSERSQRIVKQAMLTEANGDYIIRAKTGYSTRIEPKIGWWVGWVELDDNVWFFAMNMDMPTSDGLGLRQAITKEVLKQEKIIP
Method: as §1

CMY-2 = CMY-2 (Klebsiella pneumoniae, UniProt Q48434); assay: Inhibition of nitrocefin cleavage by purified CMY-2; format: biochemical; settings: nitrocefin reporter substrate, purified enzyme; read-out: Ki (CMY-2, NCF)
CMY-2, sequence (Q48434 21-381, species assumed): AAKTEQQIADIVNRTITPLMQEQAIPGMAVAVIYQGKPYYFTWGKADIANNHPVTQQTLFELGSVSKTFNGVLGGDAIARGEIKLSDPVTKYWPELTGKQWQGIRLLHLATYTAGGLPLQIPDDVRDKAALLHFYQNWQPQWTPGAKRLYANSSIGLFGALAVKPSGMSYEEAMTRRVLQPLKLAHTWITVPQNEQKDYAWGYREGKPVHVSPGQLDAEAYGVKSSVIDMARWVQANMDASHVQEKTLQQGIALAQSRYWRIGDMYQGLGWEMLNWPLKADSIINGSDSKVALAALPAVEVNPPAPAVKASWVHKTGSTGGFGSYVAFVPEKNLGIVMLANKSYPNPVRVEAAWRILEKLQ
Method: as §1

PAM1032/KPC-2 = assay: Biapenem potentiation in PAM1032/KPC-2 (MexAB-OprM overexpressed); format: cell-based, Pseudomonas aeruginosa
Method: (§4) Efflux of BLIs from Pseudomonas aeruginosa by the MexAB-OprM efflux pump was also evaluated. […] Due to expression of KPC-2 both strains became resistant to biapenem. […] Potency of BLIs to potentiate biapenem in these strains was determined. […] The ratio of MPC64 values for each BLI in PAM1032/KPC-2 (efflux proficient) and PAM1154/KPC-2 (efflux deficient) was determined to generate the Efflux Index (EI).

PAM1154/KPC-2 = assay: Biapenem potentiation in PAM1154/KPC-2 (MexAB-OprM lacking); format: cell-based, Pseudomonas aeruginosa
Method: as §4

| SMILES | AZT MPC4 CTX-M-14 KP1005 (KP1005 (CTX-M-14)) | Ki (SHV-12) | TIG MPC4 SHV-5 ec308 (ec308 (SHV-5) [3]) | TIG MPC4 CMY-6 EC1010 (EC1010 (CMY-6) [4]) | TIG MPC4 CTX-M-15 KP1009 (KP1009 (CTX-M-15) [5]) | AZT MPC4 TEM-10 ec302 (ec302 (TEM-10) [6]) | TIG MPC4 TEM-10 ec302 (ec302 (TEM-10) [8]) | AZT MPC4 K-2 KP1004 (KP1004 (K-2)) | Ki (CTX-M-14) | AZT MPC4 ECL1002 (ECL1002) | AZT MPC4 SHV-5 ec308 (ec308 (SHV-5) [9]) | further results |
| --- | --- | --- | --- | --- | --- | --- | --- | --- | --- | --- | --- | --- |
| O=C(COCc1ccccc1)N[C@H]1Cc2cccc(C(=O)O)c2OB1O [CPD B, reference compound] | Z (key: X = MIC of less than 1 μg/mL; Y = MIC of 1 μg/mL to 10 μg/mL; Z = MIC of greater than 10 μg/mL) | < 0.001 µM | Y (Y = MIC of 1 μg/mL to 10 μg/mL) | Y (key: X = MIC of less than 1 μg/mL; Y = MIC of 1 μg/mL to 10 μg/mL; Z = MIC of greater than 10 μg/mL) | Z (Z = MIC of greater than 10 μg/mL) | Z (key: X = MIC of less than 1 μg/mL; Y = MIC of 1 μg/mL to 10 μg/mL; Z = MIC of greater than 10 μg/mL) | Z (key: X = MIC of less than 1 μg/mL; Y = MIC of 1 μg/mL to 10 μg/mL; Z = MIC of greater than 10 μg/mL) | Z (Z = MIC of greater than 10 μg/mL) | < 0.001 µM | Z (Z = MIC of greater than 10 μg/mL) | Y (Y = MIC of 1 μg/mL to 10 μg/mL) | Ki (KPC-2): > 0.01 µM; AZT MPC4 CMY-6 EC1010 (EC1010 (CMY-6) [1]): Z (key: X = MIC of less than 1 μg/mL; Y = MIC of 1 μg/mL to 10 μg/mL; Z = MIC of greater than 10 μg/mL); IC50 (CathepsinA): 15 to 500 µM; IC50 (Chymase): 300 to 800 µM; IC50 [2]: 15 to 500 µM; IC50 (Thrombin): > 800 µM; IC50 (Neutrophil elastase): > 500 µM; IC50 [7]: > 500 µM; IC50 (CathepsinG): 15 to 500 µM; IC50 (Chymotrypsin): > 800 µM; AZT MPC4 CTX-M-15 KP1009 (KP1009 (CTX-M-15) [10]): Z (key: X = MIC of less than 1 μg/mL; Y = MIC of 1 μg/mL to 10 μg/mL; Z = MIC of greater than 10 μg/mL) |
| NC(=O)CC(=O)N[C@H]1Cc2cccc(C(=O)O)c2OB1O [Compound 16, (R)-3-(3-amino-3-oxopropanamido)-2-hydroxy-3,4-dihydro-2H-benzo[e][1,2]oxaborinine-8-carboxylic acid] | X (key: X = MIC of less than 1 μg/mL; Y = MIC of 1 μg/mL to 10 μg/mL; Z = MIC of greater than 10 μg/mL) | < 0.001 µM | Y (Y = MIC of 1 μg/mL to 10 μg/mL) | X (key: X = MIC of less than 1 μg/mL; Y = MIC of 1 μg/mL to 10 μg/mL; Z = MIC of greater than 10 μg/mL) | X (X = MIC of less than 1 μg/mL) | X (key: X = MIC of less than 1 μg/mL; Y = MIC of 1 μg/mL to 10 μg/mL; Z = MIC of greater than 10 μg/mL) | Y (key: X = MIC of less than 1 μg/mL; Y = MIC of 1 μg/mL to 10 μg/mL; Z = MIC of greater than 10 μg/mL) | Y (Y = MIC of 1 μg/mL to 10 μg/mL) | 0.001 to 0.01 µM | X (X = MIC of less than 1 μg/mL) | X (X = MIC of less than 1 μg/mL) | Ki (P99): 0.001 to 0.01 µM; Ki (OXA-48): 0.001 to 0.01 µM; Ki (CMY-2): 0.001 to 0.01 µM; PAM1032/KPC-2 Biapenem MPC64 (PAM1032/KPC-2): X (key: X = Less than 10; Y = 10 to 40; Z Greater than 40); PAM1154/KPC-2 Biapenem MPC64 (PAM1154/KPC-2): X (key: X = Less than 10; Y = 10 to 40; Z Greater than 40) |
